The term melting point denotes the temperature, or range, at which the solid turns liquid. On to `O=C(NCc1ccc(Cl)cc1)c1cnc2ccc(I)cn2c1=O`, for which the melting point fell in the range of 191 to 194 °C.
On to `O=C(Nc1ccc(-c2ncc(-c3ccc(NC(=O)C4CCCCCC4)cc3)[nH]2)cc1)c1ccc(Cl)cc1`, for which the melting point lay in the range of 325 to 327 °C.
The molecule `CC(C)c1cccc(C(C)C)c1NC(=O)NC1CCOc2ccccc2C1` (configuration not stated) yielded a melting point of 184 to 186 °C.
Molecule `COc1ccc(CNC(=O)C23CC4CC(CC(C4)C2)C3)cc1` came in with a melting point of 91 to 94 °C.
The molecule `Cc1cccc2sc(=NC(=O)C(F)(F)F)n(N)c12` had a melting point of 160 to 161 °C.
Consider `COc1ccc(CN(C)CCCc2ccc(NC(=O)c3[nH]c4ccccc4c3C(=O)c3ccccc3)cc2)cc1OC`, for which the melting point lay in the range of 156 to 161 °C.
For the molecule `CN(CCN1CCN(c2ccc(C(F)(F)F)cc2)CC1)C[C@@]1(C)Cn2cc([N+](=O)[O-])nc2O1`, the melting point is 148 to 150 °C.
Take `N=C(Nc1ccc(C(F)(F)F)cc1)c1ccc(Cl)cc1Cl`: the melting point fell in the range of 108 to 109 °C.
Molecule `CC(C)(C)OC(=O)CCc1ccc(O)cc1CN` yielded a melting point of 154 to 157 °C.
With `Cc1nnc(-c2ccc3occ(-c4ccc(S(C)=O)cc4)c3n2)o1` (configuration not stated), the melting point was in the range of 219 to 220 °C.
`Nc1nc(-c2ccccc2)c(C(O)CO)c2ncnn12` (configuration not stated) showed a melting point of 199 to 200 °C.
As for `CCc1cc(OCc2ccc(-c3ccccc3-c3nnnn3-c3ccc([N+](=O)[O-])cc3)cc2)c2ccccc2n1`, the melting point fell in the range of 204 to 206 °C.
As to `CO/C=C(/C(=O)OC)c1ccccc1COc1cccc(N2CCCCC2)c1`, the melting point is 64 to 66 °C.
`COC(=O)C(=O)c1cc(F)c(OCCOc2ccc3ccccc3c2)c(F)c1` yielded a melting point of 114 to 115 °C.
`CC(C)(C(=O)O)c1cn2nc(CCCCN3CCN(C(c4ccccc4)c4ccccc4)CC3)ccc2n1` came in with a melting point of 108 to 110 °C.
Under `O=C(O)c1[nH]c(-c2cccs2)cc1-c1ccc(F)cc1` stands 194 to 195 °C; under `CC(C)(C)C(NC(=O)c1ccc(I)cc1)NC(=NC#N)Nc1cccnc1` (configuration not stated), 180 to 183 °C; under `COC(=O)c1cccc(-c2c(C)c(NC(=O)CC(C)(C)C)c(C)c3c2OCC3c2ccc(C(C)C)cc2)c1` (configuration not stated), 206 to 208 °C.
For `Fc1cccc(CCc2nnc(-c3ccc4c(c3)CCO4)o2)c1`, the melting point fell in the range of 85 to 86 °C.
For `O=S(=O)(On1nnc2ccccc21)c1ccc(Cl)cc1`, the melting point is 94 to 95 °C.
`Cc1cccc(Cl)c1C(=O)N[C@@H](Cc1ccc(-c2c(C(F)(F)F)n(C)c(=O)n(C)c2=O)cc1)C(=O)O` came in with a melting point of 243 to 247 °C.
With `CCCCS(=O)(=O)NC1Cc2ccc(C(C)=O)cc2C1` (configuration not stated), the melting point was in the range of 90 to 92 °C.
In turn, `O=C1C2C3CCC(C4CC43)C2C(=O)N1c1cc(Cl)cc(Cl)c1` (configuration not stated) returned a melting point of 145 to 153 °C.
`COc1ccc(C=Cc2ccc(CO)cc2)cc1` gave a melting point of 200 to 202 °C.
`O=C(Nc1cc(Cl)c([N+](=O)[O-])cc1O)c1ccccc1` came in with a melting point of under 250 °C.
For `N=C(N)NCCc1nccs1` the value was 130 to 135 °C; for `CC(=NOCCO)c1ccc2ccccc2c1`, 94 to 96 °C; for `COc1cc2c(cc1Nc1ncc(Cl)c(Nc3ccccc3S(=O)(=O)C(C)C)n1)CCN(CC(=O)N1CCCC1)CC2`, 88 to 105 °C.
Molecule `CC(C)(Oc1ccc(CCC(=O)c2ccc(-c3ccc(Br)cc3)s2)c(Cl)c1Cl)C(=O)O` gave a melting point of 155 to 157 °C.
For `CCOC(=O)C(Cc1ccc(C#N)cc1)(NC(C)=O)C(=O)OCC` the value was 160 to 163 °C; for `COC(=O)c1ccc(NC(=O)C(N)c2ccc3c(c2)C(C)(C)CCC3(C)C)s1` (configuration not stated), 110 to 112 °C.
In turn, `CN1CCC(c2c[nH]c3ccc(NC(=N)c4cccs4)cc23)C(F)C1` (configuration not stated) registered a melting point of 115 to 117 °C.
Under `CS(=O)(=O)c1ccc(-c2cc(C(=O)CCCO)nn2-c2ccc(Br)cc2)cc1` stands 136 to 137 °C; under `O=c1[nH]c2cc(Cl)cc(Cl)c2c(O)c1Sc1ccc(OCc2ccccc2)cc1`, 224 to 227 °C; under `CCCCN1C(=O)CC(C2C(=O)N(CCCC)C(=O)C2c2cc(C(C)(C)C)c(O)c(C(C)(C)C)c2)C1=O` (configuration not stated), 151 to 153 °C.
For `CCOC(=O)c1cn(C2CC2)c2c(F)c(NCC(O)COC(=O)c3ccccc3)c(F)cc2c1=O` (configuration not stated) the value was 134 to 136 °C.
Under `Cc1ccc(C(O[Si](C)(C)C(C)(C)C)C(=O)NO)cc1` (configuration not stated) stands 109 to 111 °C.
As to `Cc1cc(O)c(SC(C)(C)C)c(=O)o1`, the melting point fell in the range of 108 to 112 °C.
`CC(=O)Nc1ccc(OCCN(CC(=O)c2ccc(OCc3ccccc3)c(OCc3ccccc3)c2)Cc2ccccc2)cc1` showed a melting point of 104 to 106 °C.
Under `COc1ccc2c(c1)C(=O)c1ccc(C(=O)O)cc1S2(=O)=O` stands 324 to 327 °C; under `N#Cc1cnc2cc(/C=C/CCCCCCCCCN3CCOCC3)ccc2c1Nc1ccc(Cl)cc1Cl`, 105 to 106 °C.
`Nc1ncc(Sc2ncccc2O)s1` displayed a melting point of 128 to 130 °C.
In the case of `O=C(Nc1c(Cl)cncc1Cl)c1ccc(OC(F)F)c2oc3ccccc3c12`, the melting point turned out to be 270 °C.
Under `CC(C)CCC(=O)OC1c2ccccc2C(=O)N1c1ccc2ccc(F)nc2n1` (configuration not stated) stands 154 °C; under `CO/C=C(/C(=O)OC)c1ccccc1Oc1cc(OCc2ccc([N+](=O)[O-])cc2)ncn1`, 96 to 98 °C; under `N#Cc1ccccc1Oc1ccc(-c2cn(C3CCOCC3)c3ncnc(N)c23)cc1`, 125 °C.
Under `C=C(C)C(=O)Nc1ccc2ccc(Cl)nc2n1` stands 182 °C; under `O=C(O)CCc1ccc(OCC2CCN(c3ccncc3)CC2)cc1`, 303 to 307 °C; under `COC(=O)Cn1c(=O)n(C)c(=O)n(-c2cc(Oc3c(Cl)ccc(C)c3Cl)ccc2[N+](=O)[O-])c1=O`, 200 to 202 °C.
The molecule `CCCC1=NN(c2cccc(S(=O)(=O)O)c2)C(=O)C1=CNc1ccccc1CC` displayed a melting point of 259 °C.
As to `CN(C)C(=O)C(CCO)C1(C)CCCc2c1[nH]c1ccccc21` (configuration not stated), the melting point lay in the range of 145 to 146 °C.
For `CCOC(=O)C1=C(C)NC(C)=C(C(=O)OCC)C1c1ccccc1C=CC(=O)O`, the melting point lay within 175 to 178 °C.
Molecule `N#Cc1cc(C(F)(F)F)nn1-c1ccc(NC(=O)c2cccnc2F)cc1` registered a melting point of 150 to 151 °C.
For `Nc1cccc(-c2ccccc2O)c1` the value was 158 to 161 °C.
Regarding `C=C1c2cc(F)ccc2OC12CCN(C(C)=O)CC2`, the melting point lay within 114 to 116 °C.
On to `O=C1c2cccc3c4c(cc(c23)C(=O)N1O)OCO4`, for which the melting point fell in the range of 303 to 304 °C.
The molecule `CCCCCS(=O)(=O)NC(=O)/C=C/c1cc(OCCCC)nn1Cc1ccc(Cl)cc1Cl` had a melting point of 95 to 98 °C.
For the molecule `CCCCOCCOc1ccc(-c2ccc3c(c2)C=C(C(=O)Nc2ccc(CS(=O)c4nncn4C)cc2)CCN3CC(C)C)cc1` (configuration not stated), the melting point lay in the range of 87 to 89 °C.
For the molecule `COc1cc2c(cc1Br)-c1c(-c3cccs3)c3c(n1CC2)C(=O)N(C(C)C)CCN(C(=O)C(C)C)C3`, the melting point was in the range of 248 to 249 °C.
Under `CS(=O)(=O)Nc1ccc(C=O)cc1F` stands 151 °C; under `C#CCOC(=O)C1=C(C)N2CCNC2=C(C(=O)OCC)C1c1cccc([N+](=O)[O-])c1` (configuration not stated), 153 °C; under `COC(=O)c1ccc(OCCCNc2ccc3c(c2)OCO3)cc1`, 124 to 127 °C.
`CC(=O)OC1CSC(Oc2cccc3onc(C)c23)C(OC(C)=O)C1OC(C)=O` (configuration not stated) gave a melting point of 155 to 158 °C.
In turn, `S=C=Nc1ccc2nccnc2c1Br` displayed a melting point of 157 to 158 °C.
Molecule `FC1(F)CCN(c2cccc3c2OCCNC3)C1` yielded a melting point of 54 °C.
`CCOC(=O)c1cnc(Cc2ccc(OC)c(OC)c2)c2cc(OC)c(OC)cc12` displayed a melting point of 117 to 119 °C.
`Cc1c(C)c2c(c(C)c1O)CCC(C)(C(=O)NN(C)C)O2` (configuration not stated) displayed a melting point of 145 to 146 °C.
`CCN1CC(CCN(C)C)Oc2ncccc2C1=S` (configuration not stated): the melting point stood at 73 °C.
In the case of `COC1=C(c2ccccc2)C(CCCC(=O)O)OC1=O` (configuration not stated), the melting point is 94 to 96 °C.
Consider `O=C1c2ccccc2C(=O)N1Cc1noc(-c2ncn3c2[C@@H]2CCN2C(=O)c2sccc2-3)n1`, for which the melting point fell in the range of 155 to 157 °C.
As for `COCCNc1ccc2ncnc(Nc3ccc(F)cc3F)c2c1`, the melting point was 175 to 176 °C.
Under `O=C1N(Cc2ccc(C(F)(F)F)o2)c2ccccc2C12COc1cc3c(cc12)OCCO3` (configuration not stated) stands 53 to 56 °C.
With `Nc1cc2[nH]c(=O)oc2cc1N`, the melting point is over 360 °C.
`CCOC(Cc1ccccc1)=C1SC(=S)N(c2ccccc2)C1=O` showed a melting point of 119 to 121 °C.
For `NC1CCCCCCCCCCC(=O)N1` (single isomer, unassigned; (-)), the melting point fell in the range of 128 to 130 °C.
Under `COc1cc(C(=O)N(C(C)C)C2CCCCC2)ccc1Cn1ccc2ncnc-2c1C` stands 185 to 187 °C; under `Cn1c(SC(F)F)n[nH]c1=O`, 87 °C; under `COc1cc(C)nc(NC(N)=S)n1`, 220 °C.
Under `c1ccc(N2CCN(Cc3coc4ccccc34)CC2)cc1` stands 103 to 105 °C.
In the case of `O=C1C(Cl)=C(c2ccccc2)C(=O)N1Nc1ccccc1`, the melting point lay within 144 to 146 °C.
Molecule `Fc1ncnc(Oc2ccccc2)c1F` yielded a melting point of 65 to 66 °C.
The molecule `Clc1ccc2nc(-c3cccnc3)[nH]c2c1` registered a melting point of 244 to 246 °C.
As to `O=C1c2ccccc2CN1C1CCN(c2ccc(C(OCCCc3ccccc3)c3ccccc3)cc2)CC1` (configuration not stated), the melting point lay within 117 to 120 °C.
The molecule `COc1cc(CSc2ccc(O)cc2)cc(OC)c1OC` displayed a melting point of 139 to 140 °C.
The molecule `CNC(=O)c1ccc(C)c(-n2c(C)cc(OCc3ccccc3CNC(=O)Nc3cc(C(C)(C)C)nn3-c3ccc(Cl)c(O)c3)c(Cl)c2=O)c1` registered a melting point of 201 to 203 °C.
The molecule `Cc1c(F)c(N2CCC(N)C2)c(F)c2c1c(=O)c(C(=O)O)cn2-c1ccc(F)cc1F` (configuration not stated) displayed a melting point of 230 to 232 °C.
In turn, `COC(=O)CS(=O)(=O)Nc1c(F)cccc1Oc1nc(OC)cc(OC)n1` registered a melting point of 111 to 114 °C.
